Measurements from US9980948B2, “Azaindole derivative having AMPK-activating activity” (Shionogi & Co., Ltd., priority 2014, dated 2018).

Molecular target: T1, Human AMPK α2β2γ1 (Homo sapiens, UniProt O43741+P54646)
T1 construct: The full length cDNAs of human AMPK β2 (NM_005399.3) and human AMPK α2 (NM_006252.3); The full length cDNAs of human AMPK β2 (NM_005399.3); the full length cDNA of human AMPK γ1 (NM_002733.3) had been inserted into pET28b(+); 6xHis (N); made in house; host or cells: Escherichia coli BL21 CodonPlus (DE3)-RTL (AMPK); BL21 Star (DE3) (CaMKKβ)
Test: Test Example 2: evaluation of an activator for AMP-activated protein kinase (AMPK), human AMPK α2β2γ1 phosphorylated with CaMKK2, FL-Peptide 7 mobility shift
Format: biochemical
Conditions: for EC150 (compound concentration showing 150% relative to the control (100%)): human AMPK α2β2γ1, 0.2 mM ATP final, 25° C., 2 hours; for Emax: human AMPK α2β2γ1, relative to control (100%), read-out: Emax (maximum rate of increase in activity within the measurement range)
Method: The full length cDNAs of human AMPK β2 (NM_005399.3) and human AMPK α2 (NM_006252.3) were inserted into the MCS1 and MCS2 of the pETDuet-1 vector to prepare a human AMPK β2 and human AMPK α2 (6× His tag at the 5′ terminus) expressing plasmid. The plasmid was cotransfected with an expression plasmid, in which the full length cDNA of human AMPK γ1 (NM_002733.3) had been inserted into pET28b(+), into BL21 CodonPlus (DE3)-RTL to obtain an expression strain. The expression strain was cultured in TB medium, followed by induction with 0.5 mM IPTG, and cultured at 25° C. for 3 hours and then harvested.
An expression vector, in which the full length cDNA of human CAMKK β (NM_172226.1) had been inserted into pGEX-6P-3, was transfected into BL21 Star (DE3). The expression strain was cultured in TB medium, followed by induction with 0.5 mM IPTG, and cultured at 25° C. for 3 hours and then harvested.
Thus, phosphorylation treatment was carried out as pretreatment.
Human AMPK α2β2γ1 in an amount to give a conversion rate of approximately 10% by reaction for 2 hours, and CaMKK2 in an amount capable of sufficiently imparting activity to AMPK for one hour were mixed in a buffer solution consisting of a 50 mM HEPES-NaOH buffer solution (pH 7.0), 100 mM NaCl, 5 mM magnesium chloride, 0.1% bovine serum albumin, 0.2 mM sodium orthovanadate(V), 1 mM ethylene glycol-bis(2-aminoethyl ether)-N,N,N′,N′-tetraacetic acid (EGTA), 5 mM disodium β-glycerophosphate, 1 mM dithiothreitol and 0.2 mM ATP, and the obtained liquid was left to stand at 25° C. for 1 to 1.5 hours to sufficiently phosphorylate AMPK.
The obtained liquid was left to stand for 10 minutes.
The obtained liquid was allowed to react at 25° C. for 2 hours, and 10 μl of 20 mM EDTA was then added thereto to stop the reaction.
To detect phosphorylated fluorescent substrates, the reaction liquid was applied to a measuring device, LabChip EZ Reader II manufactured by Caliper Life Science, Inc., for detecting fluorescence by using differences in mobility due to differences in charge. The setting conditions for the device were pressure, −1.5 PSI; upstream voltage, −2250 V; downstream voltage, −400 V; post sample buffer sip time, 40 seconds; final delay, 120 seconds; and peak order, Product First.
A conversion rate was calculated from the peak heights of the resulting substrate and product. The conversion rate when not containing a compound was used as a control, and a concentration dependent curve was made by plotting the rate of increase in activity to the control at each concentration of a compound.

T1 sequence (P54646 whole entry): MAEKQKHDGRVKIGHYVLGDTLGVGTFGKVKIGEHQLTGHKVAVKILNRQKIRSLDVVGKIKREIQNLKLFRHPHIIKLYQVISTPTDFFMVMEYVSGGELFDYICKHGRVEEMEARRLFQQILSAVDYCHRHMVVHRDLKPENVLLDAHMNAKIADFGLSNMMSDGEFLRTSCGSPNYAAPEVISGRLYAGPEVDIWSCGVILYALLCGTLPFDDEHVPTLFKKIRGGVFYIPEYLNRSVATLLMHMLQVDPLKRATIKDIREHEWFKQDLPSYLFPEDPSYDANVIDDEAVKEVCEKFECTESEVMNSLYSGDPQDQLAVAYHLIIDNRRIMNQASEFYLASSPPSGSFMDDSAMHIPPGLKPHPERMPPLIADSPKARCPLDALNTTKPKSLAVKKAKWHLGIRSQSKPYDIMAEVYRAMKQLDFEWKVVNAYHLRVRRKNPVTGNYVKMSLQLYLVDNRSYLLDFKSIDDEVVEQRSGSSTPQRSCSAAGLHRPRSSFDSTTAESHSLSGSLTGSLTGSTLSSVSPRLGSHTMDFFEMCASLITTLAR
T1 sequence (O43741 whole entry): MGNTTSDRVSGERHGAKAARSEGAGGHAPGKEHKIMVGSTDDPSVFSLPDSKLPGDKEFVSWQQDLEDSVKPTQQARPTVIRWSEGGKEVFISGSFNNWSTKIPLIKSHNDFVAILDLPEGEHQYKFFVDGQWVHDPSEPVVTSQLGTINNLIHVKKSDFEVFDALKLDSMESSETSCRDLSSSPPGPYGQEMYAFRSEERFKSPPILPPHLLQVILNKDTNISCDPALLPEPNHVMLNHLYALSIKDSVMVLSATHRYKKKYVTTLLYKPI
T1 sequence (P54619 whole entry partner): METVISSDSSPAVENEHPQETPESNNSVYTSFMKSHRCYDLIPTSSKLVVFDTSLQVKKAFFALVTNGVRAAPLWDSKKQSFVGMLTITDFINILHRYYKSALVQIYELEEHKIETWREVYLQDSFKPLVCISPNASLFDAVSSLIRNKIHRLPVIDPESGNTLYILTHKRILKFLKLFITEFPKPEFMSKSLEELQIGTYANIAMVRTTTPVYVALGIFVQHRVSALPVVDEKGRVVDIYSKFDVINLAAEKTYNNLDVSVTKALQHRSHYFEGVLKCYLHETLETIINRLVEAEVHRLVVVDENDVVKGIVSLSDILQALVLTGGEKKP

SMILES	EC150 (compound concentration showing 150% relative to the control (100%)) [nM]	Emax [%]
O[C@@H]1CO[C@H]2[C@@H]1OC[C@H]2Oc1[nH]c2cc(Cl)c(-c3c(F)cc(C4=CCOCC4)cc3F)nc2c1Cl [Compound I-1-15]	53	680
N#Cc1cc2[nH]c(O[C@@H]3CO[C@H]4[C@@H]3OC[C@H]4O)cc2nc1NC1CCc2cc(F)cc(F)c21 (some centres unmarked) [Compound I-3-17]	40	492
O=C(O)C1CC=C(c2ccc(-c3nc4cc(O[C@H]5CCOC5)[nH]c4cc3Cl)cc2)CC1 (some centres unmarked) [Compound I-1-8]	4.1	338
O[C@@H]1CO[C@H]2[C@@H]1OC[C@H]2Oc1cc2nc(-c3ccc4scnc4c3)c(F)cc2[nH]1 [Compound I-3-14]	150	430
NC(=O)Nc1ccc(-c2ccc(-c3nc4cc(O[C@@H]5CO[C@H]6[C@@H]5OC[C@H]6O)[nH]c4cc3F)cc2)cc1 [Compound I-4-44]	1.6	518
CS(=O)(=NCCO)c1ccc(-c2ccc(-c3nc4cc(O[C@@H]5CO[C@H]6[C@@H]5OC[C@H]6O)[nH]c4cc3F)cc2)cc1 (some centres unmarked) [Compound I-4-31]	3.1	674
O[C@@H]1CO[C@H]2[C@@H]1OC[C@H]2Oc1cc2nc(-c3ccc(C4CCCO4)cc3)c(F)cc2[nH]1 (some centres unmarked) [Compound I-2-68]	26	382
O=C(O)C1CC=C(c2cc(F)c(-c3nc4cc(O[C@H]5CCOC5)[nH]c4cc3Cl)c(F)c2)CC1 (some centres unmarked) [Compound I-1-23]	11	341
O=C(O)C1CC=C(c2ccc(-c3nc4c(Cl)c(O[C@@H]5CO[C@H]6[C@@H]5OC[C@H]6O)[nH]c4cc3Cl)cc2)CC1 (some centres unmarked) [Compound I-1-20]	2.9	746
CN=S(C)(=O)c1ccc(-c2ccc(-c3nc4cc(O[C@@H]5CO[C@H]6[C@@H]5OC[C@H]6O)[nH]c4cc3C(F)(F)F)cc2)cc1 (some centres unmarked) [Compound I-4-18]	9.5	598
COc1nc(N2CC[C@@H](O)C2)ccc1-c1nc2cc(O[C@@H]3CO[C@H]4[C@@H]3OC[C@H]4O)[nH]c2cc1F [Compound I-2-78]	7.1	490
N#Cc1c(O[C@@H]2CO[C@H]3[C@@H]2OC[C@H]3O)[nH]c2cc(Cl)c(-c3ccc(C4=CCN(C(=O)CO)CC4)cc3)nc12 [Compound I-1-12]	23	779
N#Cc1c(O[C@@H]2CO[C@H]3[C@@H]2OC[C@H]3O)[nH]c2cc(Cl)c(-c3ccc(-c4ccccc4)cc3)nc12 [Compound I-1-7]	59	805
